Patent US4691024A, “New mitomycin derivatives, preparation thereof and pharmaceutical compositions containing them” (priority 1984, dated 1987)
Values after ≈ are worked out from the molar mass of the structure shown. Structures can show the parent of a compound that is named as a salt. Where two headings read alike, the source gives them in different places.

What was measured:
Type in all cases: cell-based
[1] = test system: Klebsiella pneumoniae ATCC 10031; test: microbe, parasite or virus in culture; conditions: ATCC10031, pH 7, read-out: MIC, Klebsiella pneumoniae (KP)
Text: In this table, the following symbols are used:
KP: Klebsiella pneumoniae ATCC 10031

Bacillus subtilis 10707 = test: Antibacterial activity, minimum growth inhibitory concentration by agar dilution method (BS)
Experimental: (§1) The various compounds of formula (I) of Examples 1-26 were tested for antibacterial activity against 6 microorganisms. […]. In this table, the following symbols are used:
BS: Bacillus subtilis 10707

[2] = test system: Proteus vulgaris ATCC 6897; test: Antibacterial activity, minimum growth inhibitory concentration by agar dilution method (PV)
Experimental: as §1
PV: Proteus vulgaris ATCC 6897

[3] = test system: Shigella sonnei ATCC 9290; test: Antibacterial activity, minimum growth inhibitory concentration by agar dilution method (SS)
Experimental: as §1
SS: Shigella sonnei ATCC 9290

[4] = test system: Staphylococcus aureus ATCC 6538P; test: Antibacterial activity, minimum growth inhibitory concentration by agar dilution method (SA); conditions: ATCC6538P
Experimental: as §1
SA: Staphylococcus aureus ATCC 6538P

[5] = test system: Streptococcus faecalis ATCC 10541; test: Antibacterial activity, minimum growth inhibitory concentration by agar dilution method (SF); conditions: Enterococcus faecalis
Experimental: as §1
SF: Streptococcus faecalis ATCC 10541

[6] = Bacillus subtilis, 10707, pH 7, read-out: MIC, Bacillus subtilis (BS)
[7] = ATCC6897, pH 7, read-out: MIC, Proteus vulgaris (PV)
[8] = ATCC9290, pH 7, read-out: MIC, Shigella sonnei (SS)
[9] = pH 7, read-out: MIC, Staphylococcus aureus (SA)
[10] = ATCC10541, pH 7, read-out: MIC, Streptococcus faecalis (SF)

| SMILES | MIC [1] [µg/mL] | MIC (Bacillus subtilis 10707; [6]) [µg/mL] | MIC [2, 7] [µg/mL] | MIC [3, 8] [µg/mL] | MIC [4, 9] [µg/mL] | MIC [5, 10] [µg/mL] | MIC (Bacillus subtilis 10707; Bacillus subtilis, 10707, agar dilution method, pH 7.0, read-out: MIC, Bacillus subtilis (BS)) [µg/mL] | MIC ([2]; ATCC6897, agar dilution method, pH 7.0, read-out: MIC, Proteus vulgaris (PV)) [µg/mL] | MIC ([3]; ATCC9290, agar dilution method, pH 7.0, read-out: MIC, Shigella sonnei (SS)) [µg/mL] | MIC ([4]; agar dilution method, pH 7.0, read-out: MIC, Staphylococcus aureus (SA)) [µg/mL] | MIC ([5]; ATCC10541, agar dilution method, pH 7.0, read-out: MIC, Streptococcus faecalis (SF)) [µg/mL] |
| --- | --- | --- | --- | --- | --- | --- | --- | --- | --- | --- | --- |
| CO[C@@]12[C@H](COC(N)=O)C3=C(C(=O)C(C)=C(NCCSSCCC(N)C(=O)O)C3=O)N1C[C@@H]1N[C@@H]12 (mixture of isomers) [Compound 24, 7-N-[2-[(DL-Homocystein-S-yl)thio]ethyl]mitomycin C] | 0.31 | < 0.02 | 1.3 | 40 | 0.08 | 0.63 | – | – | – | – | – |
| CO[C@@]12[C@H](COC(N)=O)C3=C(C(=O)C(C)=C(NCCSSc4ccccc4)C3=O)N1C[C@@H]1N[C@@H]12 [Compound 1, 7-N-[2-(Phenyldithio)ethyl]mitomycin C] | 0.31 (≈ 0.617 µM) | < 0.01 | 1.3 (≈ 2.59 µM) | 20 (≈ 39.8 µM) | 0.02 (≈ 0.0398 µM) | 0.02 (≈ 0.0398 µM) | – | – | – | – | – |
| CO[C@@]12[C@H](COC(N)=O)C3=C(C(=O)C(C)=C(NCCSSc4ccccc4N)C3=O)N1C[C@@H]1N[C@@H]12 [Compound 2, 7-N-[2-(2-Aminophenyldithio)ethyl]mitomycin C] | 0.31 (≈ 0.599 µM) | < 0.02 | 2.5 (≈ 4.83 µM) | 20 (≈ 38.6 µM) | 0.04 (≈ 0.0773 µM) | < 0.02 | – | – | – | – | – |
| CO[C@@]12[C@H](COC(N)=O)C3=C(C(=O)C(C)=C(NCCSSc4ccc(NC(C)=O)cc4)C3=O)N1C[C@H]1[C@@H]2N1C (some centres unmarked) [Compound 6, 7-N-[2-(4-Acetamidophenyldithio)ethyl]porfiromycin] | > 20 | 0.08 (≈ 0.139 µM) | – | – | 1.3 (≈ 2.27 µM) | 0.63 (≈ 1.1 µM) | – | – | – | – | – |
| CO[C@@]12[C@H](COC(N)=O)C3=C(C(=O)C(C)=C(NCCSSc4ccc([N+](=O)[O-])cc4)C3=O)N1C[C@@H]1N[C@@H]12 [Compound 8, 7-N-[2-(4-Nitrophenyldithio)ethyl]mitomycin C] | 1.3 (≈ 2.37 µM) | 0.08 (≈ 0.146 µM) | 2.5 (≈ 4.57 µM) | 5 (≈ 9.13 µM) | 0.16 (≈ 0.292 µM) | 0.16 (≈ 0.292 µM) | – | – | – | – | – |
| CO[C@@]12[C@H](COC(N)=O)C3=C(C(=O)C(C)=C(NCCSSc4ccc(C)cc4)C3=O)N1C[C@@H]1N[C@@H]12 [Compound 10, 7-N-[2-(4-Methylphenyldithio)ethyl]mitomycin C] | 1.3 (≈ 2.52 µM) | 0.02 (≈ 0.0387 µM) | 2.5 (≈ 4.84 µM) | > 20 | 0.04 (≈ 0.0774 µM) | 0.08 (≈ 0.155 µM) | – | – | – | – | – |
| CO[C@@]12[C@H](COC(N)=O)C3=C(C(=O)C(C)=C(NCCSSc4c(F)c(F)cc(F)c4F)C3=O)N1C[C@@H]1N[C@@H]12 [Compound 13, 7-N-[2-(2,3,5,6-Tetrafluorophenyldithio)ethyl]mitomycin C] | 0.63 (≈ 1.1 µM) | 0.02 (≈ 0.0348 µM) | 5 (≈ 8.7 µM) | 10 (≈ 17.4 µM) | 0.16 (≈ 0.278 µM) | 0.31 (≈ 0.54 µM) | – | – | – | – | – |
| CC1=C(NCCSSC[C@H](NC(=O)CC[C@H](N)C(=O)O)C(=O)NCC(=O)O)C(=O)C2=C(C1=O)N1C[C@H]3[C@H](N3C)[C@]1(O)[C@H]2COC(N)=O (stereo partly drawn) [Compound 23, 7-N-[2-[(γ-L-glutamyl-L-cysteinylglycin-S-yl)thio]ethyl]-mitomycin D potassium salt] | – | 6.3 | 13 | – | 6.3 | 6.3 | – | – | – | – | – |
| CCOC(=O)CNC(=O)[C@H](CSSCCNC1=C(C)C(=O)C2=C(C1=O)[C@@H](COC(N)=O)[C@@]1(OC)[C@H]3N[C@H]3CN21)NC(=O)CC[C@H](N)C(=O)O [Compound 25, 7-N-[2-[(γ-L-Glutamyl-L-cysteinyl-ethyl-glycinat-S-yl)thio]ethyl]mitomycin C] | 2.5 (≈ 3.43 µM) | 0.04 (≈ 0.055 µM) | 10 (≈ 13.7 µM) | – | 0.16 (≈ 0.22 µM) | 0.63 (≈ 0.866 µM) | – | – | – | – | – |
| CCOC(=O)CNC(=O)[C@H](CSSCCNC1=C(C)C(=O)C2=C(C1=O)[C@H](COC(N)=O)[C@@]1(O)[C@@H]3[C@H](CN21)N3C)NC(=O)CC[C@H](N)C(=O)O (some centres unmarked) [Compound 26] | 25 (≈ 34.3 µM) | 1.6 (≈ 2.2 µM) | 13 (≈ 17.9 µM) | – | 6.3 (≈ 8.66 µM) | 13 (≈ 17.9 µM) | – | – | – | – | – |
| CO[C@@]12[C@H](COC(N)=O)C3=C(C(=O)C(C)=C(N)C3=O)N1C[C@@H]1N[C@@H]12 [MM-C, Mitomycin C, reference compound] | – | – | – | – | – | – | 0.01 (≈ 0.0299 µM) | 0.04 (≈ 0.12 µM) | 1.3 (≈ 3.89 µM) | 0.02 (≈ 0.0598 µM) | 0.04 (≈ 0.12 µM) |
